From US20060069132A1, “Azolecarboxamide herbicides” (priority 2004, published 2006)

How the values were obtained:
Assay in all cases: Test C pre-/postemergence herbicide test
corn = assay type: in vivo, Zea mays
Method in brief: (§1)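 Visual ratings on a 0–100 scale (100 = complete control) made versus untreated controls after 12 to 14 greenhouse days. Test chemicals, formulated in surfactant-containing non-phytotoxic solvent, applied preemergence to planted seeds or postemergence to 1- to 4-leaf plants (2 to 18 cm).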

giant foxtail = assay type: in vivo, Setaria faberi
Method in brief: as §1

yellow nutsedge = assay type: in vivo, Cyperus esculentus
Method in brief: as §1

morningglory = assay type: in vivo, Ipomoea coccinea; set-up: key to Plant response rating, Morningglory: 0 = no effect, 100 = complete control
Method in brief: as §1

johnsongrass = assay type: in vivo, Sorghum halepense
Method in brief: as §1

eastern black nightshade = assay type: in vivo, Solanum ptycanthum
Method in brief: as §1

lambsquarters = assay type: in vivo, Chenopodium album
Method in brief: as §1

soybean = assay type: in vivo, Glycine max
Method in brief: as §1

common ragweed = assay type: in vivo, Ambrosia elatior; set-up: key to Plant response rating, Ragweed: 0 = no effect, 100 = complete control
Method in brief: as §1

Surinam grass = assay type: in vivo, Urochloa decumbens
Method in brief: as §1

[1] = 125 g ai/ha, scale 0 (no effect) to 100 (complete control), visual, 12 to 14 days, preemergence
[2] = 250 g ai/ha, scale 0 to 100 (0 no effect, 100 complete control), visual, 12 to 14 days, preemergence
[3] = Preemergence, 500 g ai/ha, scale 0 to 100, 0 no effect, 100 complete control

CCn1nc(C(C)(C)C)cc1C(=O)Nc1cccc(C(=O)NCC(C)C)c1 [Compound 61]
40: Plant response rating, Foxtail, Giant (giant foxtail; [2]) | Plant response rating, Nightshade (eastern black nightshade; [2])
60: Foxtail, Giant plant response rating (giant foxtail; [3]) | Johnsongrass plant response rating (johnsongrass; [3])
80: Plant response rating, Ragweed (common ragweed; [2]) | Ragweed plant response rating (common ragweed; [3])
100: Morningglory plant response rating (morningglory; [3]) | Plant response rating (0 = no effect, 100 = complete control), Lambsquarters (lambsquarters; 62 g ai/ha, preemergence) | Plant response rating, Lambsquarters (lambsquarters; [1]) | Plant response rating, Lambsquarters (lambsquarters; [2]) | Lambsquarters plant response rating (lambsquarters; [3])
90: Nightshade plant response rating (eastern black nightshade; [3])
0: Plant response rating (0 = no effect, 100 = complete control), Corn (corn; 62 g ai/ha, preemergence) | Plant response rating, Corn (corn; [1]) | Plant response rating, Corn (corn; [2]) | Corn plant response rating (corn; [3]) | Plant response rating (0 = no effect, 100 = complete control), Foxtail, Giant (giant foxtail; 62 g ai/ha, preemergence) | Plant response rating (0 = no effect, 100 = complete control), Nutsedge, Yellow (yellow nutsedge; 62 g ai/ha, preemergence) | Plant response rating, Nutsedge, Yellow (yellow nutsedge; [1]) | Plant response rating (0 = no effect, 100 = complete control), Morningglory (morningglory; 62 g ai/ha, preemergence) | Plant response rating, Morningglory (morningglory; [1]) | Plant response rating (0 = no effect, 100 = complete control), Nightshade (eastern black nightshade; 62 g ai/ha, preemergence) | Plant response rating (0 = no effect, 100 = complete control), Soybean (soybean; 62 g ai/ha, preemergence) | Plant response rating, Soybean (soybean; [1]) | Plant response rating, Soybean (soybean; [2]) | Plant response rating (0 = no effect, 100 = complete control), Ragweed (common ragweed; 62 g ai/ha, preemergence) | Plant response rating, Ragweed (common ragweed; [1]) | Plant response rating (0 = no effect, 100 = complete control), Surinam Grass (Surinam grass; 62 g ai/ha, preemergence) | Plant response rating, Surinam Grass (Surinam grass; [1])
10: Plant response rating, Nutsedge, Yellow (yellow nutsedge; [2]) | Plant response rating (0 = no effect, 100 = complete control), Johnsongrass (johnsongrass; 62 g ai/ha, preemergence) | Soybean plant response rating (soybean; [3])
30: Nutsedge, Yellow plant response rating (yellow nutsedge; [3]) | Plant response rating, Johnsongrass (johnsongrass; [1])
50: Plant response rating, Johnsongrass (johnsongrass; [2])
5: Plant response rating, Morningglory (morningglory; [2]) | Plant response rating, Surinam Grass (Surinam grass; [2]) | Surinam Grass plant response rating (Surinam grass; [3])
20: Plant response rating, Foxtail, Giant (giant foxtail; [1]) | Plant response rating, Nightshade (eastern black nightshade; [1])

CCNC(=O)c1cccc(NC(=O)c2nn(C(C)(C)C)cc2Br)c1 [Compound 221, 4-bromo-1-(1,1-dimethylethyl)-N-[3-[(ethylamino)carbonyl]phenyl]-1H-pyrazole-3-carboxamide]
30%: pest or weed control at 62 g/ha (eastern black nightshade; pre-emergence, 62 g ai/ha, preemergence, scale 0 to 100, read-out: Plant response rating, Nightshade)
80%: pest or weed control at 500 g/ha (johnsongrass; Sorghum halepense, pre-emergence, 500 g ai/ha, scale 0 to 100 (0 no effect, 100 complete control), visual, 12 to 14 days, read-out: Plant response rating, Johnsongrass)
100%: pest or weed control at 500 g/ha (eastern black nightshade; pre-emergence, 500 g ai/ha, scale 0 to 100 (0 no effect, 100 complete control), visual, 12 to 14 days, read-out: Plant response rating, Nightshade) | pest or weed control at 500 g/ha (lambsquarters; Chenopodium album, pre-emergence, 500 g ai/ha, scale 0 to 100 (0 no effect, 100 complete control), visual, 12 to 14 days, read-out: Plant response rating, Lambsquarters)
60%: pest or weed control at 500 g/ha (common ragweed; Ambrosia artemisiifolia, pre-emergence, 500 g ai/ha, scale 0 to 100 (0 no effect, 100 complete control), visual, 12 to 14 days, read-out: Plant response rating, Ragweed)
10%: Corn plant response rating (crop injury, 0 = no effect, 100 = complete kill) at 500 g/ha (corn; Zea mays, pre-emergence, 312 h, 500 g ai/ha, scale 0 to 100 (0 no effect, 100 complete control), visual, 12 to 14 days) | pest or weed control at 250 g/ha (johnsongrass; Sorghum halepense, pre-emergence, 250 g ai/ha, scale 0-100, read-out: Plant response rating, Johnsongrass) | pest or weed control at 250 g/ha (Surinam grass; Urochloa decumbens, pre-emergence, 312 h, 250 g ai/ha, scale 0-100, read-out: Plant response rating, Surinam Grass)
90%: pest or weed control at 500 g/ha (giant foxtail; Setaria faberi, pre-emergence, 312 h, 500 g ai/ha, scale 0 to 100 (0 no effect, 100 complete control), visual, 12 to 14 days, read-out: Plant response rating, Foxtail, Giant) | pest or weed control at 250 g/ha (lambsquarters; Chenopodium album, pre-emergence, 250 g ai/ha, scale 0-100, read-out: Plant response rating, Lambsquarters)
50%: pest or weed control at 125 g/ha (eastern black nightshade; pre-emergence, 125 g ai/ha, scale 0 (no effect) to 100 (complete control), visual, 12 to 14 days, read-out: Plant response rating, Nightshade)
45%: pest or weed control at 500 g/ha (Surinam grass; Urochloa decumbens, pre-emergence, 312 h, 500 g ai/ha, scale 0 to 100 (0 no effect, 100 complete control), visual, 12 to 14 days, read-out: Plant response rating, Surinam Grass)
40%: pest or weed control at 250 g/ha (giant foxtail; Setaria faberi, pre-emergence, 312 h, 250 g ai/ha, scale 0-100, read-out: Plant response rating, Foxtail, Giant)
70%: pest or weed control at 250 g/ha (eastern black nightshade; pre-emergence, 250 g ai/ha, scale 0-100, read-out: Plant response rating, Nightshade)
0%: Corn plant response rating (crop injury, 0 = no effect, 100 = complete kill) at 62 g/ha (corn; Zea mays, pre-emergence, 312 h, 62 g ai/ha, preemergence, scale 0 to 100) | Corn plant response rating (crop injury, 0 = no effect, 100 = complete kill) at 125 g/ha (corn; Zea mays, pre-emergence, 312 h, 125 g ai/ha, scale 0 (no effect) to 100 (complete control), visual, 12 to 14 days) | Corn plant response rating (crop injury, 0 = no effect, 100 = complete kill) at 250 g/ha (corn; Zea mays, pre-emergence, 312 h, 250 g ai/ha, scale 0-100) | pest or weed control at 62 g/ha (giant foxtail; Setaria faberi, pre-emergence, 312 h, 62 g ai/ha, preemergence, scale 0 to 100, read-out: Plant response rating, Foxtail, Giant) | pest or weed control at 125 g/ha (giant foxtail; Setaria faberi, pre-emergence, 312 h, 125 g ai/ha, scale 0 (no effect) to 100 (complete control), visual, 12 to 14 days, read-out: Plant response rating, Foxtail, Giant) | pest or weed control at 62 g/ha (yellow nutsedge; Cyperus, pre-emergence, 62 g ai/ha, preemergence, scale 0 to 100, read-out: Plant response rating, Nutsedge, Yellow) | pest or weed control at 125 g/ha (yellow nutsedge; Cyperus, pre-emergence, 125 g ai/ha, scale 0 (no effect) to 100 (complete control), visual, 12 to 14 days, read-out: Plant response rating, Nutsedge, Yellow) | pest or weed control at 250 g/ha (yellow nutsedge; Cyperus, pre-emergence, 250 g ai/ha, scale 0-100, read-out: Plant response rating, Nutsedge, Yellow) | pest or weed control at 500 g/ha (yellow nutsedge; Cyperus, pre-emergence, 500 g ai/ha, scale 0 to 100 (0 no effect, 100 complete control), visual, 12 to 14 days, read-out: Plant response rating, Nutsedge, Yellow) | pest or weed control at 62 g/ha (morningglory; Ipomoea, pre-emergence, 62 g ai/ha, preemergence, scale 0 to 100, read-out: Plant response rating, Morningglory) | pest or weed control at 125 g/ha (morningglory; Ipomoea, pre-emergence, 125 g ai/ha, scale 0 (no effect) to 100 (complete control), visual, 12 to 14 days, read-out: Plant response rating, Morningglory) | pest or weed control at 250 g/ha (morningglory; Ipomoea, pre-emergence, 250 g ai/ha, scale 0-100, read-out: Plant response rating, Morningglory) | pest or weed control at 500 g/ha (morningglory; Ipomoea, pre-emergence, 500 g ai/ha, scale 0 to 100 (0 no effect, 100 complete control), visual, 12 to 14 days, read-out: Plant response rating, Morningglory) | pest or weed control at 62 g/ha (johnsongrass; Sorghum halepense, pre-emergence, 62 g ai/ha, preemergence, scale 0 to 100, read-out: Plant response rating, Johnsongrass) | pest or weed control at 125 g/ha (johnsongrass; Sorghum halepense, pre-emergence, 125 g ai/ha, scale 0 (no effect) to 100 (complete control), visual, 12 to 14 days, read-out: Plant response rating, Johnsongrass) | pest or weed control at 62 g/ha (lambsquarters; Chenopodium album, pre-emergence, 62 g ai/ha, preemergence, scale 0 to 100, read-out: Plant response rating, Lambsquarters) | plant injury at 62 g/ha (soybean; Glycine max, pre-emergence, 62 g ai/ha, preemergence, scale 0 to 100, read-out: Plant response rating, Soybean) | plant injury at 250 g/ha (soybean; Glycine max, pre-emergence, 250 g ai/ha, scale 0-100, read-out: Plant response rating, Soybean) | pest or weed control at 62 g/ha (common ragweed; Ambrosia artemisiifolia, pre-emergence, 62 g ai/ha, preemergence, scale 0 to 100, read-out: Plant response rating, Ragweed) | pest or weed control at 62 g/ha (Surinam grass; Urochloa decumbens, pre-emergence, 312 h, 62 g ai/ha, preemergence, scale 0 to 100, read-out: Plant response rating, Surinam Grass)
20%: pest or weed control at 125 g/ha (lambsquarters; Chenopodium album, pre-emergence, 125 g ai/ha, scale 0 (no effect) to 100 (complete control), visual, 12 to 14 days, read-out: Plant response rating, Lambsquarters) | plant injury at 500 g/ha (soybean; Glycine max, pre-emergence, 500 g ai/ha, scale 0 to 100 (0 no effect, 100 complete control), visual, 12 to 14 days, read-out: Plant response rating, Soybean)
